Consider 2 molecules from patent publication US9169492B2, “Compositions and methods for enhanced parvovirus transduction” (priority 2011, dated 2015).

Peptide text beside a SMILES is read from it. * marks the point of attachment. Cbz = O=C(OCc1ccccc1)*

The test system of series [1] is FVIII−/− mice. In words: Canine FVIII activity (Coatest) in plasma of hemophilia A mice after portal vein AAV.cFVIII with or without proteasome inhibitor. In kind it is in vivo, mouse. The conditions noted are these: for week at which FVIII activity became detectable: AAV2.cFVIII vector, drug rows = co-administered with this vector (FIG. 2C); for enhanced factor VIII expression on average: hemophilia mice. The procedure: (§1) To avoid anticipated antibody-mediated immune responses to the canine FVIII transgene, all FVIII^−/− mice received cyclophosphamide (Sigma Aldrich, St Louis, Mo.) injected intraperitoneally in 3 doses of 100 μg each on days −3, 0, and +3, as previously described^5.
(§2) Canine FVIII activity in mouse plasma was measured by the Coatest SP4 kit (Chromogenix, DiPharma, West Chester, Ohio) following the manufacture's instruction with modification. Normal canine plasma (regarded as 100 percent activity=1 IU/ml) was serially diluted into FVIII^−/− pooled mouse plasma to generate the standard curve. Neutralizing antibodies to canine FVIII in mouse were measured by the Bethesda assay using a START 4 Coagulation Analyzer as described^42 (Diagnostica Stago, Asnières, France). Human factor IX was measured based on one-stage factor IX activity assay (FIX-specific aPTT) as previously described, using a START 4 Coagulation Analyzer (Diagnostica Stago, Asnières, France)^43.
Studies were carried out to analyze the effect of combination therapy using large transgene cassette FVIII in hemophilic A mice using the same genetic background (C57B1/6). […] Virus was characterized for total particle number by qPCR, virion integrity by electron microscopy, capsid ratio by silver stain, and DNA genome size by alkaline gel electrophoresis.

In series [2] the test system is Factor VIII−/− mice. The series can be described thus: Expression from codon-optimized AAV8 factor VIII vector with or without bortezomib. In kind it is in vivo, mouse. The conditions noted are these: ssAAV8 3×10^10 vg/animal portal vein + bortezomib 0.5 mg/kg; persisted 12 weeks. The method, then: Factor VIII^−/− mice received 3×10^10 vg/animal single strand AAV serotype 8 vector encoding an oversized factor VIII transgene (n=5 mice per treatment group). The canine factor VIII cDNA sequence incorporated in the vector was engineered for optimal mammalian codon usage and GC nucleotide content. Mice received vector infusion to portal vein either alone or in combination with 0.5 mg/kg of proteasome inhibitor bortezomib (PI). While it has been established that codon-optimization increases expression from clotting factor VIII and IX vectors, it was not established whether PI could further augment the more efficient codon-optimized vectors.

Series [3] relates to hemophilia A dogs. In words: Tolerability of vector and bortezomib in hemophilia A dogs. It counts as in vivo, dog. The conditions noted are these: no liver transaminase elevations, neurologic symptoms or changes in hematologic parameters. The method, then: Using identical AAV cFVIII vector cassettes, studies were carried out to determine whether proteasome inhibitor augmentation of the expression of large transgenes translates to the canine hemophilia A model. […] Four hemophilia A pups received the same AAV therapy and received a single I.V. dose of the proteasome inhibitor bortezomib at FDA-approved dose of (1.3 mg/m^2). […] Specifically, no liver transaminase elevations, neurologic symptoms or changes in hematologic parameters were observed.

Series [4] deals with FIX−/− mice. In words: Human factor IX activity (one-stage FIX-specific aPTT) in hemophilia B mice after portal vein AAV.hFIX with or without bortezomib. In kind it is in vivo, mouse. The note with it: 20 weeks. The method, then:
as §1, §2
Studies were conducted to test the effect of combination therapy using bortezomib on in vivo correction of hemophilic animals. First, a vector carrying a genome approximately the same size as wild type AAV was used for the correction of hemophilia B in a mouse model. […]

The nature of series [5]: Bortezomib dose tolerability in mice without AAV vector. In kind it is in vivo. The procedure:
The primary objective of these studies was to validate in small and large animal “combination therapy” using FDA approved drug bortezomib and AAV transgene vectors. The present studies describe the use of the proteasome inhibitor, bortezomib (also known as Velcade®), as this is the only proteasome inhibitor currently approved for clinical use by the FDA. Bortezomib, like most chemotherapy is dosed based on body surface area. For all large animal studies, the FDA-approved dose of (1.3 mg/m^2) was used. However preclinical toxicity data has established a safe bortezomib dose for mice of 0.5 mg per kilogram of body weight^23. […] Even though the dosing in mice was calculated on a per kilogram body weight basis vs. clinically recommended body surface area, the total dose used in mice is roughly equivalent to total dose used in dog studies described herein.

For series [6] the following is noted: preclinical toxicity data (ref 23); cited from earlier work.
The test system of series [7] is 293T cells. The series can be described thus: FACScan analysis of GFP expression in AAV2.GFP-transduced cells with or without bortezomib. In kind it is cell-based. The note with it: AAV2.GFP transduction and bortezomib co-administration. The method, then: 293T cells were grown in Dulbecco's modified Eagle's medium (Mediatech, Herndon, Va.) supplemented with 9% fetal bovine serum and 1% penicillin/streptomycin solution and transduced at a multiplicity of infection of 1. At 3-5 days after transduction, cells were harvested, fixed in phosphate-buffered saline (PBS) containing 2% formaldehyde/0.2% glutaraldehyde, and analyzed by FACScan as previously described^40.

For series [8], the system named is FVIII−/− mice. In words: Liver ALT, AST and complete blood counts in vector-treated hemophilia A mice. It counts as in vivo, mouse. The note with it: mice receiving vector alone or in combination with bortezomib. An excerpt: In these mice, canine factor VIII peaked at 8 weeks, then began to decrease. […] Bortezomib co-administration improved initial and sustained canine factor VIII expression. […] To facilitate comparison of the proteasome inhibitor effect upon vectors generated from wtAAV-sized factor IX transgene and oversized factor VIII transgene, the same time points are graphed in FIGS. 2A and 2B (factor IX) and FIGS. 2C and 2D (factor VIII). Bortezomib treatment was associated with a proportionately greater augmentation of the oversize transgene expression than that of the smaller transgene.

The mark [9] stands for this setting: bortezomib co-administered with AAV2 cFVIII vector.

As to `CC(C)C[C@H](NC(=O)[C@H](Cc1ccccc1)NC(=O)c1cnccn1)B(O)O` [bortezomib], the “week at which FVIII activity became detectable” value in series [1] was 1 week. In series [1] (setting [9]), the “factor VIII activity maintained for a year” value is recorded as “more than 3%”. Also, the “peak factor VIII activity at week 8” value in series [1] (setting [9]) is given as 0.11±0.06 IU/ml. Moreover, in series [1] (hemophilic mice), the “persistence of enhanced expression without further proteasome inhibitor treatment” value is listed as above 1 year. In series [1] (mouse, in vivo), the “FVIII expression increased on average vs vector alone” value was above 550%. Moreover, in series [1] (mouse, in vivo), the “factor VIII expression higher on average vs AAV8.cFVIII vector alone” value came out at 259%. In addition, the “enhanced factor VIII expression on average” value is around 600% in series [1] (single dose of bortezomib given with AAV2 factor VIII vector) and around 300% in series [1] (single dose of bortezomib given with AAV8 factor VIII vector). The “expression of codon-optimized factor VIII” value in series [2] is “augmented expression”. The tolerability result in series [3] was “well tolerated”; in series [5] (0.5 mg/kg, without AAV vector), “tolerated the proteasome inhibitors without apparent side effect or change in hematologic parameters”; in series [5] (higher dose 1.0 mg/kg), “occasionally mice receiving this dose displayed decreased activity and feeding”. For the same molecule, in series [4] (bortezomib single dose co-administered with AAV8 factor IX vector), the “higher factor IX activity vs vector alone” value is around 24%. For the same molecule, the “increase in factor IX expressed vs vector alone” value in series [4] (bortezomib single dose with ssAAV2.FIX) is 83%. Besides, the “safe bortezomib dose for mice” value in series [6] is reported as 0.5 mg per kilogram of body weight. In addition, the “percentage of cells expressing transgene” value in series [7] is recorded as “increase”. Further, the “liver ALT, AST and complete blood counts” value in series [8] is given as “did not show any evidence of hepatic or hematologic toxicity”.

With `CC(C)C[C@@H](C=O)NC(=O)[C@H](CC(C)C)NC(=O)[C@H](CC(C)C)NC(=O)OCc1ccccc1` [MG-132] (Cbz-Leu-Leu-Leu-aldehyde), in series [1], the “week at which FVIII activity became detectable” value was determined as 2 week. Moreover, in series [1] (mouse, in vivo), the “FVIII expression increased on average vs vector alone” value is given as above 150% and the “effect on factor VIII expression” value is reported as “slightly increased factor VIII expression was observed in the first month”.
